# Measured values as given in patent US20030105093A1, “MTP activity-lowering compositions” (priority 1998, published 2003).
# Counter-ions that a name gives are not always drawn.
# Columns and labels:
# [1] = test system: MTP (microsomal triglyceride transfer protein); assay: MTP activity-lowering activity: liver MTP activity after 2 weeks' dosing of rats; format: in vivo; details: SD rats, liver homogenate, control group 9.09 ± 1.0
# Experimental: SD rats weighing about 200 g in groups of 6 were given 20 mg or 60 mg of the hydrochloride of the amino acid of the invention in 10 ml of water in 3 divided doses daily for 2 weeks. Thereafter, the liver was excised and homogenized using a homogenizing buffer (50 mM Tris (pH 7.4), 50 mM potassium chloride, 1.5 mM EDTA, leupeptin (5 μg/ml) and 2 mM phenylmethylsulfonyl fluoride) and the homogenate was centrifuged to give a liver homogenate. This liver homogenate was adjusted to a protein concentration of about 2 mg/mL with the same homogenizing buffer and 1 part of deoxycholate solution (0.56%, pH 7.5) was added to 10 parts of the homogenate. The reaction was then carried out at 4° C. for 30 minutes, whereby MTP was liberated from the microsomal fraction. The membrane fraction was then removed by centrifugation to give a supernatant. This supernatant was diluted with Tris buffer (a buffer solution containing 15 mM Tris (pH 7.4), 40 mM NaCl, 1 mM EDTA, 0.02% NaN3) and dialyzed against the same buffer at 4° C. overnight. The dialysate thus obtained was analyzed for MTP activity by the method of J. R. Wetterau [Science, 258, 999 (1992)].
# [2] = test system: HepG2 cells (apo B secretion); assay: Apo B antisecretory activity (1): apo B secreted into medium by HepG2 cells, ELISA; format: cell-based, human; details: for Apo B secretions (μg/well): 24 hours' culture, control group 9.92 ± 0.80
# Experimental: HepG2 cells (100×10^4 cells/dish) were sown on 3.5 cm dishes and precultured using 1 ml DME (containing 10% FCS) medium per dish. Following this preculture, the cells were washed with DME medium twice, added to the test medium, and cultured at 37° C. under 95% air-5% carbon dioxide for 24 hours. The test medium was prepared by dissolving cycloalliin in dimethyl sulfoxide and diluted with DME medium containing 1% ESA and 0.5 mM oleic acid to a final cycloalliin concentration of 10^−6 M or 10^−4 M.
# After 24 hours' culture, the medium was recovered and the amount of apo B secreted into the medium was determined by ELISA. Thus, anti-human apo B antibody (a 100-fold dilution) was distributed into a 96-well ELISA plate, 100 μL per well, and incubated at 37° C. for 2 hours. Then, 100 μL/well of Block Ace was added and the plate was further incubated at 37° C. for 2 hours. The wells were washed with PBS-Tween×3 and 100 μL each of apo B standard solution and HepG2 culture were added, followed by further incubation at 4° C. for 16 hours. After the wells were washed with PBS-Tween×3, 100 μL/well of anti-human apo B marker antibody (a 200-fold dilution) was added and the plate was incubated at 37° C. for 2 hours. The wells were washed with PBS-Tween×3, then 100 μL/well of the substrate solution was added, and the plate was incubated at 25° C. for 30 minutes. The reaction was stopped by adding 50 μL of 4.5 M H2SO4 and the absorbance at 482 nm was measured to estimate the amount of apo B secretion.
# [3] = test system: HepG2 cells (TG secretion); assay: TG antisecretory activity: secreted [14C]-labeled triglyceride in HepG2 medium; format: cell-based; details: HepG2, 10 μM, 24 hours of culture; control group 161.2 ± 2.2
# Experimental: HepG2 cells were cultured in DME medium supplemented with 1% BSA and 0.5 mM oleic acid for 24 hours. Then, the medium was changed to 1% BSA-DME containing 10 μM of the amino acid of the invention and simultaneously 0.5 μci of [^14C] acetic acid was added. The cells and medium were recovered after 24 hours of culture. The recovered cells were homogenized by sonication, and after quantitation of protein, the amount of secreted triglyceride (TG) was determined from the amount of labeled lipid in the medium.
# [4] = 60 mg daily in 3 divided doses for 2 weeks
compound,measurement,setting,value
"C[C@H]1C[S@+]([O-])C[C@@H](C(=O)O)N1 [Cycloalliin HCl, (1S, 3R, 5S)-5-methyl-1,4-thiazane-3-carboxylic acid 1-oxide]",MTP activity (%),[1]; 20 mg daily in 3 divided doses for 2 weeks,6.12 ± 0.7 %
same,MTP activity (%),[1]; [4],4.92 ± 1.0 %
"C[C@H]1C[S@+]([O-])C[C@@H](C(=O)O)N1 [Cycloalliin, (1S, 3R, 5S)-5-methyl-1,4-thiazane-3-carboxylic acid 1-oxide]",Apo B secretions (μg/well),"[2]; HepG2, 10^−4 M",7.67 ± 1.31 μg/well
same,Effect on apo B secretion (in words),"[2]; HepG2, 10^−6 M or 10^−4 M, 24 hours, vs control group",significant suppression of apo B secretion
same,Apo B secretions (μg/well),"[2]; HepG2, 10^−6 M",7.54 ± 1.13 μg/well
S-methyl-L-cysteine sulfoxide [S-methyl-L-cysteine sulfoxide HCl],MTP activity (%),[1]; [4],5.43 ± 0.6 %
S-n-propyl-L-cysteine sulfoxide,TG secretions ([^14C] dpm × 10^−2/mg protein),[3],105.8 ± 18.9 [^14C] dpm × 10^−2/mg protein
